According to US20120159656A1, “COMPOSITIONS AND METHODS FOR […] DEFECTS” (Galenea Corp., priority 2009, published 2012):
“Also recorded” adds a separate entry of the source.

Experiments:
EEG power in the PFC = assay: Spectral analysis of PFC EEG by frequency band (area under the curve) in a familiar environment; assay type: in vivo, mouse
Procedure: Surgery, Animal handling and EEG recording were performed according to the methods disclosed herein (See, e.g., Examples 1-5). Recordings in a novel environment were made upon an animal's first exposure to the recording chamber. Animals were exposed to the recording chamber an additional 3 times (15 min each) to record EEGs from a familiar environment (fourth exposure).
EEG analysis. EEGs were analyzed using an automated FFT-periodogram function with Hamming windows in the Matlab analysis suite (pwelch function, The Mathworks, Inc., Natick MA). EEGs were analyzed in 10 sec intervals and power spectral analyses were computed for each 10 sec interval by averaging 1 sec power spectra with a 0.5 sec overlap across the entire 10 sec. Power across a given frequency band was determined by computing the area under the curve for various frequency bands (Theta: 4-12 Hz; GammaLow: 30-55 Hz; GammaHi: 65-90 Hz; Ripple: 100-300 Hz). Measures of power for each animal were binned and a frequency histogram representing number of events (10 sec each) observed at each power was computed. Frequency histograms across a given genotype were averaged to derive the final EEG power histogram for each frequency band.
To investigate the disease relevance of this intermediate power phenotype, EEGs were recorded from normal control animals in a familiar environment before and after they were treated with the psychotomimetic compound, phencyclidine (PCP) (5 mg/kg, IP).

[1] = test system: gamma oscillations recorded from prefrontal cortex (PFC); assay: Continuous EEG recording from PFC of well-habituated mice, maximal gamma power (30-90 Hz); conditions: PCP 5 mg/kg
[2] = test system: high-power gamma oscillations in the PFC; assay: EEG recording from PFC in absence and presence of novel objects before and after PCP; assay type: in vivo, mouse; conditions: PCP 5 mg/kg intraperitoneal, gamma 30-90 Hz
Procedure: Real-time monitoring of EEGs and single-unit activity (SUA) from PFC was performed via surgical implantation of 8-microwire bundle electrodes (FIG. 5A, B). […] Recordings were made using commercially available multichannel hardware (Multichannel Systems, Reutlingen, Germany). The system is capable of monitoring EEGs and SUA from PFC in freely behaving mice (FIG. 5C) and this neural activity has been characterized (FIG. 5D).
In another series of experiments, the EEG recording techniques were determined to be sensitive enough to detect pharmacologically-induced perturbations in neural activity in vivo. For these studies EEGs from PFC were measured when mice were in the absence and presence of novel environmental stimuli. To determine whether EEGs recorded from PFC are sensitive to a pharmacologic manipulation known to impair cognitive function, animals were injected intraperitoneally with PCP (5 mg/kg) and EEGs were recorded in the absence and presence of novel environmental stimuli. This experiment confirmed that high-power gamma oscillations in the PFC were elicited while animals attend to novel stimuli in the environment (FIG. 10A). […] These observations confirm that the techniques for monitoring EEGs and SUA in the PFC of freely behaving mice are sensitive enough to detect treatments known to inhibit cognition.

[3] = control animals, PCP 5 mg/kg IP

In the case of `c1ccc(C2(N3CCCCC3)CCCCC2)cc1` [PCP, phencyclidine], the “average power in the GammaHi frequency band (65-90 Hz)” value (EEG power in the PFC; control animals treated with PCP 5 mg/kg IP, n=5) is reported as 19.12±0.11, the “effect on power in the GammaHi frequency band (65-90 Hz)” value (EEG power in the PFC; [3]) is reported as “significant increase in the number of high-powered events; also recorded: increased the average spectral power” and the “effect on power in the GammaLow frequency band (30-55 Hz)” value (EEG power in the PFC; [3]) is reported as “significantly more high-powered GammaLow events; also recorded: increased the average spectral power”. The “effect on power in the Ripple frequency band (100-300 Hz)” value (EEG power in the PFC; [3]) was “no significant differences in power; also recorded: no effect”, the “effect on power in the Theta frequency band (4-12 Hz)” value (EEG power in the PFC; [3]) was “significant increase; also recorded: increased the average spectral power” and the “distribution of the power of gamma oscillations” value ([1]; familiar environment, normal mice) was “unimodal distribution of gamma oscillations with “Intermediate” power”. The “gamma oscillation power after injection” value ([1]; well-habituated animals, gamma 30-90 Hz) was 4 μV^2/Hz and the “expression of high-power gamma oscillations during novel object presentation” value [2] was “completely blocked the expression of high-power gamma oscillations; also recorded: lack of a bimodal distribution in gamma oscillation power”.
